Calls of active or inactive are those of the source. No rule for the calls is given here.

This is an account of results in PubChem BioAssay AID850 (SRMLSC, 2007).

Test [1] is described as follows: concentration-response yeast growth inhibition under permissive conditions, counter-assay for yeast lifespan-shortening chemical project (AID 850).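 Also: growth read as optical density after one day of incubation.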 Conditions: Saccharomyces cerevisiae growth inhibition, permissive control, measured here: maximum growth inhibition, stronger effect = higher value.
In test [2] the test system is Saccharomyces cerevisiae growth inhibition, permissive control. The description is as above.

What is called inhibition is the drop in the measured response relative to a control, in per cent. The term IC50 denotes the point on the concentration scale where inhibition reaches its midpoint. Take `CCn1c(=O)c(C(=O)Nc2nc3ccccc3[nH]2)c(O)c2ccccc21`: in test [1] (at 0.781 µM), the inhibition stood at 24.2%. In addition, in test [2], the IC50 was > 100 µM (inactive).
Consider `CCSc1ncc(/C=N/Nc2ccc(Cl)cc2)n1C`, for which the inhibition in test [1] (at 50 µM) was 94.7%. Moreover, in test [2], the IC50 was 6.82 µM.
Regarding `CCC(C)/C(C)=N/NC(=O)c1ccc(COc2ccc(Cl)c(C)c2)cc1` (stereo unspecified), the inhibition in test [1] (at 50 µM) amounted to 83.8%. Moreover, the half-maximal inhibitory concentration (IC50) in test [2] was 27 µM.
The like results for `N/C(Cc1ccc(Cl)cc1)=N\OC(=O)c1ccccc1` were, in that order, 98% and 29.8 µM.
The corresponding values for `CC(C)(Oc1ccc(Cl)cc1)C(=O)NC1=NN(c2ccccc2)C(=O)C1` are 88.3% and 21.5 µM.
Turning to `Cc1cc(/C=N/n2cnnc2)c(C)n1-c1ccc(OCc2ccc(Cl)cc2Cl)cc1`, the inhibition in test [1] (at 25 µM) was determined as 25.7%. The IC50 in test [2] is > 100 µM (inactive).
Turning to `CCc1ccc2c(c1)C1(NN=C(c3ccccc3)S1)C(=O)N2` (stereo unspecified), the inhibition in test [1] (at 50 µM) is 97.5%. In addition, the IC50 in test [2] is 27.5 µM.
With `Cc1ccc(-c2[nH]nc(N)c2N=Nc2ccccc2C)cc1`, the inhibition in test [1] (at 0.391 µM) was determined as 17.6%. Further, the IC50 in test [2] is > 100 µM (inactive).
`CCCCCCCCCCCCCCCC[n+]1cccc2ccccc21`: the inhibition in test [1] (at 50 µM) stood at 100%. The IC50 in test [2] was 0.701 µM.
Take `CCN1CCN(C(=O)C(NS(=O)(=O)c2ccc3nc(C)sc3c2)C(C)C)CC1` (stereo unspecified): the inhibition in test [1] (at 0.098 µM) turned out to be 16.9%. Besides, the IC50 in test [2] was > 100 µM (inactive).
For the compound `c1ccc2nc3ccccc3nc2c1`, the inhibition in test [1] (at 50 µM) came out at 55.6%. In addition, the IC50 in test [2] was 44.8 µM.
With `CCOC(=O)CSc1nnc(CSc2nc(N)c3c(C)c(C)sc3n2)n1-c1ccccc1`, the inhibition in test [1] (at 0.391 µM) was determined as 7.59%. The IC50 in test [2] is > 100 µM (inactive).
Turning to `CCN1/C(=C(\O)c2ccccc2)C(=O)c2ccccc2S1(=O)=O`, the inhibition in test [1] (at 1.563 µM) is 19.4%. The IC50 in test [2] is > 100 µM (inactive).
As to `CCCCOC(=O)n1c(=S)oc2cc(Cl)ccc21`, in test [1] (at 50 µM), the inhibition was 99.8%. The concentration for half-maximal inhibition (IC50) in test [2] is 14.5 µM.
For the compound `C=CCN1C(C(=O)c2ccccc2)=C(OC(=O)COc2ccccc2)c2ccccc2S1(=O)=O`, the inhibition in test [1] (at 50 µM) is 65.8%. Also, the IC50 in test [2] is 43.1 µM.
For the compound `CC1CCN(c2nc(/C=C/c3ccccc3)nc3ccccc23)CC1`, the inhibition in test [1] (at 50 µM) is 100%. For the same compound, the IC50 in test [2] was 22.2 µM.
For `Cc1cc(Cl)ccc1N=c1ssnc1Cl`, in test [1] (at 12.5 µM), the inhibition amounted to 14%. Moreover, in test [2], the IC50 was > 100 µM (inactive).
With `CN1CCc2cc3c(c4c2[C@H]1[C@H](O)c1ccccc1-4)OCO3`, the inhibition in test [1] (at 50 µM) is 11.1%. Also, in test [2], the IC50 is > 100 µM (inactive).
Regarding `CC1(C)Cc2c(C#N)c(N)sc(=S)c2CO1`, the inhibition in test [1] (at 12.5 µM) was found to be 23.1%. The IC50 in test [2] was > 100 µM (inactive).
As for `CC1=CC(=O)c2ccccc2C1=O`, the inhibition in test [1] (at 50 µM) worked out at 88.6%. In addition, in test [2], the IC50 was 17.7 µM.
The like results for `S=C(NCc1ccc(Cl)cc1Cl)NC1CCCCC1` were, in that order, 22.8% and > 100 µM (inactive).
Consider `Cc1cc(O)c(/C=N/Nc2ccc(Cl)cc2)c(=O)o1`, for which, in test [1] (at 25 µM), the inhibition came out at 98.2%. Besides, the 50% inhibitory concentration (IC50) in test [2] is 3.93 µM.
Consider `Cc1ccccc1C(=O)NNC(=S)NC(=O)COc1ccccc1`, for which the inhibition in test [1] (at 50 µM) worked out at 73.9%. For the same compound, in test [2], the IC50 was 26.5 µM.
Take `Cc1ccc(COc2ccc(Br)cc2/C=N/O)cc1`: the inhibition in test [1] (at 0.098 µM) is -1.78%. Moreover, in test [2], the IC50 was > 100 µM (inactive).
With `CC1=C(C)/C(=N\OS(=O)(=O)c2ccc(C)cc2)C=CC1=O`, the inhibition in test [1] (at 25 µM) is 99.2%. Also, the IC50 in test [2] is 8.79 µM.
Regarding `CCC(C)NC(=O)C1CCN(S(=O)(=O)c2cccc3cccnc23)CC1` (stereo unspecified), the inhibition in test [1] (at 50 µM) turned out to be 12.2%. In test [2], the IC50 was > 100 µM (inactive).
As to `CCN1/C(=C/c2ccc3ccc(C)cc3[n+]2CC)Sc2ccccc21`, in test [1] (at 50 µM), the inhibition was 92.9%. Also, the IC50 in test [2] is 21.7 µM.
The corresponding values for `Cc1ccc2[nH]c3c(c2c1)CCc1cn[nH]c1-3` are 98.6% and 14.7 µM.
On to `N#CC(c1cccc(Cl)c1)c1ccc2c(C(F)(F)F)cc(C(F)(F)F)nc2n1` (stereo unspecified), for which the inhibition in test [1] (at 50 µM) was 4.48%. In addition, the IC50 in test [2] was > 100 µM (inactive).
Consider `Cc1ccc(C(=O)O/N=C/c2c(N3CCOCC3)n(C)c3ccccc23)cc1`, for which the inhibition in test [1] (at 6.25 µM) stood at 18.7%. In addition, in test [2], the IC50 is > 100 µM (inactive).
With `CC12C(=O)N(c3cccc4cccnc34)C(=O)C1C1C=CC2C1` (stereo unspecified), the inhibition in test [1] (at 0.781 µM) was 13.8%. In addition, in test [2], the IC50 was > 100 µM (inactive).
As to `Oc1c(CN2CCc3ccccc3C2)cc(Cl)c2cccnc12`, the inhibition in test [1] (at 50 µM) came out at 101%. The concentration for half-maximal inhibition (IC50) in test [2] is 11.5 µM.
The like results for `O=C(CC(O)(C(F)(F)F)C(F)(F)F)Nc1ccc(Cl)c(Cl)c1` were, in that order, 92.8% and 19.2 µM.
The corresponding values for `Cn1cccc1C(=O)NC(=O)CSc1cccc[n+]1[O-]` are 97.5% and 24.3 µM.
The like results for `O=C(Nc1nc(-c2ccccn2)cs1)C1COc2ccccc2O1` (stereo unspecified) were, in that order, 95.2% and 11.6 µM.
For the compound `O=C(N/N=C\c1cccc([N+](=O)[O-])c1O)C1COc2ccccc2O1` (stereo unspecified), the inhibition in test [1] (at 50 µM) came to 74.8%. The IC50 in test [2] was 22 µM.
On to `CCCc1ccc(OCC(=O)NNC(=S)NC(=O)c2ccco2)cc1`, for which the inhibition in test [1] (at 50 µM) stood at 98.8%. The IC50 in test [2] was 10.6 µM.
With `O=C(O)CCn1cc(/C=C/C(=O)c2ccc(Cl)cc2)c(-c2ccc(Br)cc2)n1`, the inhibition in test [1] (at 12.5 µM) is 15.3%. Moreover, the IC50 in test [2] is > 100 µM (inactive).
For the compound `O=[N+]([O-])c1ccc(CN2CCCCCC2)s1`, in test [1] (at 25 µM), the inhibition was 28.2%. Besides, in test [2], the IC50 was > 100 µM (inactive).
Turning to `CC(C)CC(=O)/C(=C\c1ccc(Cl)cc1Cl)n1cncn1`, the inhibition in test [1] (at 50 µM) was found to be 100%. Besides, in test [2], the IC50 was 11.7 µM.
The like results for `C/C(=N\NC(=O)c1ccc(CSc2cccc3cccnc23)cc1)C1CCCCC1` were, in that order, 93.4% and 29.7 µM.
On to `O=C1OCC(CO)(CO)N=C1NNc1ccccc1Cl`, for which the inhibition in test [1] (at 25 µM) was 98.4%. Moreover, the IC50 in test [2] was 3.49 µM.
On to `CC(C)(C)N/N=C/c1cc(Cl)cc([N+](=O)[O-])c1O`, for which the inhibition in test [1] (at 50 µM) came out at 95.7%. Besides, the IC50 in test [2] was 16.8 µM.
The corresponding values for `c1cn2cc(-c3ccc4c(c3)OCO4)nc2s1` are 27.3% and > 100 µM (inactive).
In the case of `CC1=NOC(=O)/C1=C/c1ccc(-c2ccc(Cl)cc2)o1`, the inhibition in test [1] (at 25 µM) was determined as 90.5%. Besides, the IC50 in test [2] was 11 µM.
Consider `Cc1cc(=O)[nH]c(-n2nc(C)cc2C)n1`, for which, in test [1] (at 50 µM), the inhibition was found to be 99.6%. Further, in test [2], the IC50 was 15.4 µM.
The like results for `Oc1ccc(Cl)cc1Cc1cc(Cl)ccc1O` were, in that order, 99% and 25.8 µM.
Regarding `Oc1ccc(N=Nc2cccc(Cl)c2)cc1C=Nc1ccc(N2CCOCC2)cc1`, the inhibition in test [1] (at 12.5 µM) turned out to be 2.01%. Also, the IC50 in test [2] is > 100 µM (inactive).
Take `Oc1cccc(C=NCc2ccccc2)c1O`: in test [1] (at 50 µM), the inhibition came to 98.8%. The IC50 in test [2] was 10.4 µM.
The like results for `Clc1ccc(N/N=C/c2ccncc2)cc1Cl` were, in that order, 21.4% and > 100 µM (inactive).
The like results for `CC1=NOC(=O)/C1=C\c1ccc(-c2ccc(Cl)cc2Cl)o1` were, in that order, 80.5% and 32.3 µM.
On to `CN(c1ccc(O)cc1)c1nc(-c2ccccc2)cs1`, for which the inhibition in test [1] (at 0.781 µM) turned out to be 9.5%. In test [2], the IC50 was > 100 µM (inactive).
For `O=C1NC(c2ccccn2)Nc2sc3c(c21)CCC3` (stereo unspecified), the inhibition in test [1] (at 0.195 µM) came to 25.5%. In addition, in test [2], the IC50 is > 100 µM (inactive).
For the compound `Cn1cccc1C(=O)Nc1nc(-c2ccccn2)cs1`, the inhibition in test [1] (at 50 µM) stood at 97.9%. Moreover, the IC50 in test [2] is 22.5 µM.
The corresponding values for `O=C1CSC(=S)N1c1cccnc1` are 14.8% and > 100 µM (inactive).
In the case of `Clc1ccccc1N/N=C/c1ccc2c(c1)OCO2`, in test [1] (at 50 µM), the inhibition was determined as 98%. Moreover, the IC50 in test [2] was 24.4 µM.
As to `COc1ccc(OCCNC2CCCC2)cc1`, in test [1] (at 0.195 µM), the inhibition worked out at 7.53%. Further, the IC50 in test [2] is > 100 µM (inactive).
Take `Nc1ccc(C(=O)OCC(=O)Nc2ccc3c(c2)OCO3)cc1[N+](=O)[O-]`: the inhibition in test [1] (at 0.391 µM) was 17.2%. The IC50 in test [2] was > 100 µM (inactive).
Consider `C=C(C)COc1ccc(-c2[nH]ncc2-c2ccccc2)c(O)c1`, for which, in test [1] (at 50 µM), the inhibition is 86.8%. The IC50 in test [2] was 38.6 µM.
`Cc1nn2c(-c3ccncc3)nnc2c2ccccc12`: the inhibition in test [1] (at 25 µM) was 73.2%. For the same compound, the half-maximal inhibitory concentration (IC50) in test [2] was 11.8 µM.
As to `Cc1nn2c3ccccc3nc2c2ccccc12`, in test [1] (at 0.195 µM), the inhibition was 15.3%. Further, the IC50 in test [2] was > 100 µM (inactive).
For the compound `CN(O)/C=c1/ccc2c(n1)C(=O)C=CC=2`, in test [1] (at 12.5 µM), the inhibition is 98%. Besides, the concentration for half-maximal inhibition (IC50) in test [2] was 8.03 µM.
As for `Cc1c(C=O)c2ccccn2c1C(=O)c1ccncc1`, the inhibition in test [1] (at 50 µM) is 10.7%. Besides, the IC50 in test [2] was > 100 µM (inactive).
With `CCc1cccc(C)c1NC(=S)NCc1ccc2[nH]c(C)cc2c1`, in test [1] (at 50 µM), the inhibition was 8.77%. In addition, in test [2], the IC50 is > 100 µM (inactive).
Take `OC(CN1CCN(c2ccccn2)CC1)Cn1c2ccc(Cl)cc2c2cc(Cl)ccc21` (stereo unspecified): the inhibition in test [1] (at 50 µM) amounted to 98.9%. Besides, the IC50 in test [2] is 30.9 µM.
Regarding `O=C(O)c1cc(-c2ccc(/C=N/Nc3ccc(Cl)cc3)o2)ccc1Cl`, in test [1] (at 50 µM), the inhibition is 98.8%. In addition, the IC50 in test [2] was 4.41 µM.
Turning to `CCOc1ccc(/C=C/C(=O)c2cc(Br)ccc(=O)c2O)cc1`, the inhibition in test [1] (at 50 µM) worked out at 89.6%. Also, the IC50 in test [2] was 16.7 µM.
In the case of `Cc1cccc(N=Nc2ccc(O)c3ncccc23)c1`, in test [1] (at 50 µM), the inhibition came out at 27.9%. For the same compound, the IC50 in test [2] is > 100 µM (inactive).
